Literature values, collected in PMC10386743, “Application of Ligand- and Structure-Based Prediction Models for the Design of Alkylhydrazide-Based HDAC3 Inhibitors as Novel Anti-Cancer Compounds” (Pharmaceuticals, 2023).

system: HDAC3; conditions: 1 µM

Structure (SMILES) | HDAC3 inhibition @1 µM [%@1 µM]
CCCCCCNNC(=O)c1ccc(C)c(NCc2ccccc2)c1 [Compound 71] | 9

same assay, conditions: 10uM

Structure (SMILES) | HDAC3 inhibition @10uM [%]
CCCCCCNNC(=O)c1ccc(C)c(NCc2ccccc2)c1 [Compound 71] | 42

same assay, conditions: experimentally determined

Structure (SMILES) | activity on HDAC3 (in words)
CCCNNC(=O)c1ccc(CNC(C)=O)cc1 [Compound 68] | moderate activity
CCCCCCNNC(=O)c1ccc(CNC(C)=O)cc1 [Compound 69] | did not show significant activity
CCCCCCNNC(=O)c1cccc(NCc2ccccc2)c1 [Compound 70] | did not show significant activity
CCCCCCNNC(=O)c1ccc(C)c(NCc2ccccc2)c1 [Compound 71] | did not show significant activity

same assay, conditions: newly designed compounds

Structure (SMILES) | pIC50 HDAC3 (HDAC3 experimental pIC50)
CCCNNC(=O)c1ccc(-c2ccc(CNC(C)=O)cc2)cc1 [Compound 64] | 7.04
CCCCNNC(=O)c1ccc(-c2ccc(CNC(C)=O)cc2)cc1 [Compound 65] | 6.46
CCCCCNNC(=O)c1ccc(-c2ccc(CNC(C)=O)cc2)cc1 [Compound 66] | 5.82
CCCCCCNNC(=O)c1ccc(-c2ccc(CNC(C)=O)cc2)cc1 [Compound 67] | <5.00
CCCNNC(=O)c1ccc(CNC(C)=O)cc1 [Compound 68] | 5.80
CCCCCCNNC(=O)c1ccc(CNC(C)=O)cc1 [Compound 69] | <5.00
CCCCCCNNC(=O)c1cccc(NCc2ccccc2)c1 [Compound 70] | <5.00
CCCNNC(=O)c1cnc(NCc2ccccc2)nc1 [Compound 72] | 7.37

system: recombinant human HDAC3; conditions: recombinant human HDAC3, Boc-Lys(acetyl)-AMC; supplement Ref. [46]

Structure (SMILES) | pIC50 HDAC3 (HDAC3 experimental pIC50)
CCCNNC(=O)c1ccc(CNC(=O)c2cc3cc(OC)ccc3o2)cc1 [Compound 1] | 9.55
CCCNNC(=O)c1ccc(CNC(=O)c2cc3ccccc3o2)cc1 [Compound 3] | 9.42
CCCNNC(=O)c1ccc(CNC(=O)c2cc3ccccc3[nH]2)cc1 [Compound 4] | 9.36
CCCNNC(=O)c1ccc(CNC(=O)c2cc3cc(Cl)ccc3o2)cc1 [Compound 5] | 9.21
CCCNNC(=O)c1ccc(CNC(=O)c2cc3cc(Cl)ccc3[nH]2)cc1 [Compound 6] | 9.18
CCCNNC(=O)c1ccc(CNC(=O)c2cc3cc(F)ccc3o2)cc1 [Compound 7] | 9.08
C#CCOc1ccc2oc(C(=O)NCc3ccc(C(=O)NNCCC)cc3)cc2c1 [Compound 8] | 9.07
CCCNNC(=O)c1ccc(CNC(=O)c2ccc3ccccc3n2)cc1 [Compound 9] | 9.05
CCCNNC(=O)c1ccc(CNC(=O)c2ccc3cnccc3c2)cc1 [Compound 11] | 8.99
CCCNNC(=O)c1ccc(CNC(=O)c2nc3ccccc3s2)cc1 [Compound 12] | 8.88
CCCNNC(=O)c1ccc(CNC(=O)c2cc3cc(Br)ccc3[nH]2)cc1 [Compound 13] | 8.88
CCCNNC(=O)c1ccc(CNC(=O)c2nc3ccccc3[nH]2)cc1 [Compound 14] | 8.84
CCCNNC(=O)c1ccc(CNC(=O)c2cc3ccccc3cn2)cc1 [Compound 15] | 8.83
CCCNNC(=O)c1ccc(CNC(=O)c2ccc3ccncc3c2)cc1 [Compound 16] | 8.81
CCCNNC(=O)c1ccc(CNC(=O)c2cc3cc(F)ccc3[nH]2)cc1 [Compound 17] | 8.79
CCCNNC(=O)c1ccc(CNC(=O)c2cnc3ccccc3c2)cc1 [Compound 18] | 8.75
CCCNNC(=O)c1ccc(CNC(=O)c2cc3cnccc3cn2)cc1 [Compound 19] | 8.69
CCCNNC(=O)c1ccc(CNC(=O)c2cc3cc(O)ccc3o2)cc1 [Compound 40] | 9.29
CCCNNC(=O)c1ccc(CNC(=O)c2cc3cc(OC)ccc3[nH]2)cc1 [Compound 41] | 9.24
CCCNNC(=O)c1ccc(CNC(=O)c2cc3cc(Br)ccc3o2)cc1 [Compound 42] | 9.21

same assay, conditions: recombinant human HDAC3, Boc-Lys(acetyl)-AMC; supplement prints Ref. [48]

Structure (SMILES) | pIC50 HDAC3 (HDAC3 experimental pIC50)
CCCNNC(=O)/C=C/c1ccc(CNCCc2c(C)[nH]c3ccccc23)cc1 [Compound 2] | 9.55
CCCNNC(=O)c1ccc(NCc2ccccc2)cc1 [Compound 22] | 8.21
CCCNNC(=O)c1ccc(CNCCc2c(C)[nH]c3ccccc23)cc1 [Compound 26] | 7.70
CCCNNC(=O)c1ccc(OCc2ccccc2)cc1 [Compound 27] | 7.61
CCCNNC(=O)c1ccc(CNCc2ccccc2)cc1 [Compound 30] | 7.01
COC(=O)CCNNC(=O)/C=C/c1ccc(CNCCc2c(C)[nH]c3ccccc23)cc1 [Compound 34] | 6.51
CCCNNC(=O)c1cccc(CNCCc2c(C)[nH]c3ccccc23)c1 [Compound 36] | 6.17
CCCNNC(=O)c1ccc(CN(CCc2c(C)[nH]c3ccccc23)C(=O)OC(C)(C)C)cc1 [Compound 43] | 7.90
CCCNNC(=O)/C=C/c1ccc(CN(CCc2c(C)[nH]c3ccccc23)C(=O)OC(C)(C)C)cc1 [Compound 44] | 7.78
Cc1[nH]c2ccccc2c1CCNCc1ccc(/C=C/C(=O)NNCCC#N)cc1 [Compound 45] | 7.46
CCCNNC(=O)c1ccc(NC(=O)c2ccccc2)cc1 [Compound 46] | 7.31
CCCNNC(=O)c1ccc(CN(Cc2ccccc2)C(=O)OC(C)(C)C)cc1 [Compound 49] | 7.11
CCCNNC(=O)c1cccc(CN(CCc2c(C)[nH]c3ccccc23)C(=O)OC(C)(C)C)c1 [Compound 57] | 5.30
Cc1[nH]c2ccccc2c1CCNCc1ccc(/C=C/C(=O)NNCCN)cc1 [Compound 59] | 5.28

same assay, conditions: recombinant human HDAC3, Boc-Lys(acetyl)-AMC; supplement prints Ref. [50]

Structure (SMILES) | pIC50 HDAC3 (HDAC3 experimental pIC50)
CCCNNC(=O)c1ccc(CNC(=O)/C=C/c2ccccc2)cc1 [Compound 10] | 9.02
CCCNNC(=O)c1ccc(CNC(=O)c2ccccc2)cc1 [Compound 20] | 8.46
CCCCNNC(=O)c1ccc(CNC(=O)/C=C/c2ccccc2)cc1 [Compound 21] | 8.44
CCCCNNC(=O)c1ccc(CNC(=O)c2ccccc2)cc1 [Compound 23] | 8.07
CCCCCNNC(=O)c1ccc(CNC(=O)c2ccccc2)cc1 [Compound 24] | 7.73
CCNNC(=O)c1ccc(CNC(=O)/C=C/c2ccccc2)cc1 [Compound 25] | 7.71
CCCCCNNC(=O)c1ccc(CNC(=O)/C=C/c2ccccc2)cc1 [Compound 28] | 7.49
O=C(NCc1ccc(C(=O)NNCC2CC2)cc1)c1ccccc1 [Compound 29] | 7.40
CCCCNNC(=O)c1ccc(OC)cc1 [Compound 31] | 6.80
CCCCCCNNC(=O)c1ccc(CNC(=O)c2ccccc2)cc1 [Compound 32] | 6.73
CCCCNNC(=O)/C=C/c1ccccc1 [Compound 33] | 6.53
CCCCCCCNNC(=O)c1ccc(CNC(=O)c2ccccc2)cc1 [Compound 35] | 6.25
CCCCNNC(=O)c1ccc2ccccc2c1 [Compound 37] | 6.05
CCCCNNC(=O)c1cccs1 [Compound 38] | 6.04
CCCCNNC(=O)c1cccnc1 [Compound 39] | 5.81
CCCCNNC(=O)c1ccc(-c2ccccc2)cc1 [Compound 47] | 7.17
O=C(NCc1ccc(C(=O)NNCCC(F)(F)F)cc1)c1ccccc1 [Compound 48] | 7.16
O=C(NCc1ccc(C(=O)NNCC2CCC2)cc1)c1ccccc1 [Compound 50] | 7.07
CCNNC(=O)c1ccc(CNC(=O)c2ccccc2)cc1 [Compound 51] | 6.73
CCCCNNC(=O)c1ccc(Oc2ccccc2)cc1 [Compound 52] | 6.51
CCCCCCCCNNC(=O)c1ccc(CNC(=O)c2ccccc2)cc1 [Compound 53] | 5.96
CCCCNNC(=O)c1cc2ccccc2o1 [Compound 54] | 5.87
C/C=C/CNNC(=O)c1ccc(CNC(=O)c2ccccc2)cc1 [Compound 55] | 5.81
CCCCNNC(=O)CCc1ccccc1 [Compound 56] | 5.72
CCCCNNC(=O)c1ccco1 [Compound 58] | 5.30
CCCCNNC(=O)c1cccc2ccccc12 [Compound 60] | < 5.00
CC(C)NNC(=O)c1ccc(CNC(=O)c2ccccc2)cc1 [Compound 61] | < 5.00
CC/C=N/NC(=O)c1ccc(CNC(=O)c2ccccc2)cc1 [Compound 62] | < 5.00
CCCCCCCCCCNNC(=O)c1ccc(CNC(=O)c2ccccc2)cc1 [Compound 63] | < 5.00
